Assay results published in ChEMBL document CHEMBL1201862, “PubChem BioAssay data set” (2004).
Values belong to the molecule of their own block, whether it stands above or below them. The source made the active and inactive calls.

How the values were obtained:
[1] = target: Intestinal-type alkaline phosphatase (Homo sapiens, UniProt P09923); assay: Dose Response confirmation of uHTS hits from a small molecule inhibitors of human intestinal alkaline phosphatase via a luminescent assay. [Related pubchem assays (depositor defined):AID2544, AID2574]; assay type: functional
[2] = target: Melanin-concentrating hormone receptor 1 (Homo sapiens, UniProt Q99705); assay: Fluorescence-based counterscreen for antagonists of the G-protein coupled receptor 7 (GPR7): cell-based high throughput dose response assay to identify antagonists of the melanin-concentrating hormone receptor 1 (MCHR1).; assay type: functional
[3] = target: T1, Neuropeptides B/W receptor type 1 (Homo sapiens, UniProt P48145); assay: Fluorescence-based dose response cell-based high throughput screening assay to identify antagonists of the G-protein coupled receptor 7 (GPR7). [Related pubchem assays: 1952 (Screening assay (GPR7 antagonists).), 1880 (Summary AID.)]; assay type: functional
T1 sequence (P48145 whole entry): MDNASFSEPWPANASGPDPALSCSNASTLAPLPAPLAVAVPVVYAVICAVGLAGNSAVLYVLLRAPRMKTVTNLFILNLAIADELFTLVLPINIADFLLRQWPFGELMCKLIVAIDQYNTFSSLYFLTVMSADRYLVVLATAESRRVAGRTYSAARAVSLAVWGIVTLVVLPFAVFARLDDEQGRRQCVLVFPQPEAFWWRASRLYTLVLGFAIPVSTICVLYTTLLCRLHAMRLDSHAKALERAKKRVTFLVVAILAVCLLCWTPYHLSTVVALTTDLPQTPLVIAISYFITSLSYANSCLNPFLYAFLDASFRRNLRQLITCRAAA

Aminopeptidase N = target: T2, Aminopeptidase N (Plasmodium falciparum FcB1/Columbia, UniProt O96935); assay: P. falciparum M1AAP inhibitors, biochemical, fluorogenic H-Leu-NHMec substrate, 1536-well (AID 1445); design: species or system Plasmodium falciparum 3D7, 3D7
T2 sequence (O96935 whole entry): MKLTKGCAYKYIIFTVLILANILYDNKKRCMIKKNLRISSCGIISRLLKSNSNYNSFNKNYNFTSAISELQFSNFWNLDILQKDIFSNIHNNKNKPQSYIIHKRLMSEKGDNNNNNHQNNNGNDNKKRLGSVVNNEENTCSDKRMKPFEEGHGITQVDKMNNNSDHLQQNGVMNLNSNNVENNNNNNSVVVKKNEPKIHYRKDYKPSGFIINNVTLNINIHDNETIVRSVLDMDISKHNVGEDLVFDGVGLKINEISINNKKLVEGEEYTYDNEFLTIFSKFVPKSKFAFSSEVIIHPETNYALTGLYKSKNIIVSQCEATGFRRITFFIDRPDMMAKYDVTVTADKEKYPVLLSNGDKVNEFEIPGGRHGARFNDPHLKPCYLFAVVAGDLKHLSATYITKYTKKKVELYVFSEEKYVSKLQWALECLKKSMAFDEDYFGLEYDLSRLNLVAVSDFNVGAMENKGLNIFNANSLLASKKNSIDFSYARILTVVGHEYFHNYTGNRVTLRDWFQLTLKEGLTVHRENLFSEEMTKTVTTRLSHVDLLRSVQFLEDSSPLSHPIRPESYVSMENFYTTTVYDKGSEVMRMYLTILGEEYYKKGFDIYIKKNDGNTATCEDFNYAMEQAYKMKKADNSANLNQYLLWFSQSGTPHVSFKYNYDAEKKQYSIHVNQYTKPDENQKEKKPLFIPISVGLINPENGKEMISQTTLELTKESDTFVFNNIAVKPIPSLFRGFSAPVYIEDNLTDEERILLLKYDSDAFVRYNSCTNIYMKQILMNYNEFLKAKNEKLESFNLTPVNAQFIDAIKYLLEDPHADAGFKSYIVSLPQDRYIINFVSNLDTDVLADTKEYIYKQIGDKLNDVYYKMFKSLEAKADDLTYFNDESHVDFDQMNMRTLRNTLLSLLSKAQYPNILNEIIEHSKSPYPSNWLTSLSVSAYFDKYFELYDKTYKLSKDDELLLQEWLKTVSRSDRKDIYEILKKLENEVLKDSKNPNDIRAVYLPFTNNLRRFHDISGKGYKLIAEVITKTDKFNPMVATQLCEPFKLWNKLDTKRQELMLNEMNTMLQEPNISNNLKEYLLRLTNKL

[4] = target: T3, Kappa-type opioid receptor (Homo sapiens, UniProt P41145); assay type: functional
Beta-galactosidase [5] = target: T4, Beta-galactosidase (Escherichia coli, UniProt Q8VNN2); assay type: functional
Leucine aminopeptidase = target: T5, Leucine aminopeptidase (Plasmodium falciparum 3D7, UniProt Q8IL11); assay: P. falciparum M17LAP inhibitors, primary screen, biochemical, fluorogenic H-Leu-NHMec substrate, 1536-well (AID 1619); assay type: functional
T5 sequence (Q8IL11 whole entry): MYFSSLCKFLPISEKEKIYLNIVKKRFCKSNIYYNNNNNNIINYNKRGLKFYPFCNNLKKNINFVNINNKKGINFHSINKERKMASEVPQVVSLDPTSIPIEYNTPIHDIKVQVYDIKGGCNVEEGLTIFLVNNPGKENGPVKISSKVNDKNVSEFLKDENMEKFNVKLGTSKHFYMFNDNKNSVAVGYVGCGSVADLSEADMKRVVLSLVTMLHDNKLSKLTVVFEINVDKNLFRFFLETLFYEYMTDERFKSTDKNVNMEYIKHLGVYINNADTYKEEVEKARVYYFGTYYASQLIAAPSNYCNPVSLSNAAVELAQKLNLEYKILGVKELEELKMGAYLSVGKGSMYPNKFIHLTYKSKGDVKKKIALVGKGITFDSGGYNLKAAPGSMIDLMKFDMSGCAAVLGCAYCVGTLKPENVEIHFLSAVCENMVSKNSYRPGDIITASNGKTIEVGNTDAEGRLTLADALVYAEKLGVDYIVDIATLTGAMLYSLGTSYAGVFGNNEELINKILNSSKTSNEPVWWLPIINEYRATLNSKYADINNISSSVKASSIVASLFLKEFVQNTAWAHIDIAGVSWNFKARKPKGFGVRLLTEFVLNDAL

[6] = target: T3, Kappa-type opioid receptor; assay type: functional; remark: listed apart in the source
[7] = target: Acyl-homoserine lactone acylase PvdQ (Pseudomonas aeruginosa (strain LESB58), UniProt Q9I194); assay: P. aeruginosa PvdQ acylase inhibitors, dose response, biochemical, fluorescence, plate reader and imaging, cherry-picks (AID 493231)
[8] = HepG2 cell cytotoxicity, dose response, cytotoxicity control for Shn3 inhibitor project, CellTiter-Glo, cherry-picked (AID 624134); assay type: functional, cell-based
[9] = target: T6, Voltage-gated N-type calcium channel alpha-1B subunit/Amyloid beta A4 precursor protein-binding family A member 1 (Homo sapiens, UniProt Q00975+Q02410); assay type: protein assay
[10] = Shn3 3'UTR reporter inhibitors, dose response, cell-based, Clone20 osteoblasts, firefly luciferase, cherry-picked (AID 624132); assay type: functional;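 note: firefly luciferase luminescence from reporter carrying the Shn3 3'UTR in osteoblasts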
[11] = control 3'UTR Renilla luciferase suppression, dose response, counter-screen for Shn3 inhibitor project, cell-based, Clone20-Shn3RL, cherry-picked (AID 624133); assay type: functional
[12] = target: T6, Voltage-gated N-type calcium channel alpha-1B subunit/Amyloid beta A4 precursor protein-binding family A member 1; assay type: protein assay; remark: listed apart in the source
Beta-galactosidase [13] = target: T4, Beta-galactosidase; assay: beta-galactosidase enzyme inhibitors and activators, dose response, artefact control for CCR6 antagonist project, biochemical, E. coli enzyme, set 3 (AID 504712); assay type: functional
[14] = target: Polyadenylate-binding protein 1 (Homo sapiens, UniProt P11940); assay: PABP poly(A) RNA binding inhibitors, primary screen, biochemical, fluorescence polarization, uHTS (AID 2014)
[15] = target: Eukaryotic translation initiation factor 4H (Homo sapiens, UniProt Q15056); assay: human eIF4H binding inhibitors, primary screen, translation initiation inhibitor project, biochemical, uHTS, fluorescence polarization (AID 2012)
Cytochrome P450 2D6 = Cytochrome P450 2D6 (Homo sapiens, UniProt P10635);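 note: CYP2D6 member of a cytochrome P450 panel assay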
[16] = target: Potassium voltage-gated channel subfamily KQT member 2 (Rattus norvegicus, UniProt O88943, W236L); assay: KCNQ2 channel potentiators, dose response, mechanism study for KCNQ2 potentiator project, cell-based, automated electrophysiology (AID 2603); assay type: functional
[17] = cytotoxicity in NIH/3T3 mouse fibroblasts, dose response, cytotoxicity control, cell-based, mouse embryonic fibroblasts, dry powder, set 2 (AID 493247); assay type: functional; settings: Fibroblast
Trypanosoma cruzi = assay: growth inhibition of intracellular Trypanosoma cruzi, dose response, cell-based, plate reader, dry powder, set 3 (AID 493197); assay type: functional

IC50 [1]: > 100 µM (inactive)
SMILES: CC1Cn2c(nnc2C23CC4CC(CC(C4)C2)C3)S1 (configuration not stated)

IC50 [2]: > 43.8 µM (not active) | IC50 [3]: > 43.8 µM (not active)
SMILES: O=C(c1cnccn1)N(Cc1cccs1)C1(C(=O)NC2CCCC2)CCCCC1

SMILES: CCOc1cc(/C=C2\SC(=S)N(C(C(=O)O)c3ccccc3)C2=O)ccc1O (configuration not stated)
IC50 (Aminopeptidase N): 31.8 µM (active) | IC50 [4]: 23.2 µM (inactive) | EC50 (Beta-galactosidase [5]): 14.3 µM (active) | IC50 (Leucine aminopeptidase): 45.5 µM (active) | IC50 [6]: > 32 µM

SMILES: CSc1nnc(-c2ccc([N+](=O)[O-])cc2)o1
AC50 [7]: 6.96 µM (active)

SMILES: N#CC(c1ccc(Cl)cc1)c1ncc(C(F)(F)F)cc1Cl (configuration not stated)
AC50 [7]: 0.939 µM (active)

SMILES: CCOc1ccc(N2C(=O)CC(Sc3nnnn3-c3ccccc3)C2=O)cc1 (configuration not stated)
AC50 [8]: 40.3 µM (active) | IC50 [9]: 3.74 µM (active) | AC50 [10]: 11.5 µM (active) | AC50 [11]: 12.1 µM (active) | IC50 [12]: 13.4 µM (active) | IC50 (Beta-galactosidase [13]): > 66.6 µM (inactive)

SMILES: O=C(CN1CCN(S(=O)(=O)/C=C/c2ccccc2)CC1)NC(=O)NCc1ccco1
IC50 [14]: > 100 µM (inactive) | IC50 [15]: 13.1 µM (active)

AC50 (Cytochrome P450 2D6): inconclusive | EC50 [16]: 3.01 µM (active) | IC50 (Beta-galactosidase [13]): > 66.6 µM (inactive)
SMILES: CCOC(=O)c1c(-c2ccc(C)o2)csc1NC(=S)NC(=O)N(C)C

IC50 [2]: > 43.8 µM (not active) | IC50 [3]: > 43.8 µM (not active)
SMILES: CCOC(=O)c1[nH]c2ccc(OC)cc2c1NS(=O)(=O)c1ccc(OC)cc1OC

SMILES: O=C(N/N=C/c1ccc([N+](=O)[O-])o1)C1CCCCC1
AC50 [17]: 21.5 µM (active) | AC50 (Trypanosoma cruzi): 0.501 µM (active)

SMILES: CCC(=O)N1c2ccc(S(=O)(=O)NCc3ccco3)cc2CC1C (configuration not stated)
IC50 [14]: 24.1 µM (active) | IC50 [15]: 10.2 µM (active)
